Experimental data: paper PMC8766756, “Insights on Cancer Cell Inhibition, Subcellular Activities, and Kinase Profile of Phenylacetamides Pending 1H-Imidazol-5-One Variants” (Frontiers in Pharmacology, 2022)
“And” between values parts separate entries of the source, which are not always exact repeats. Equal values may be shown once.

Key:
Assay in all cases: PamChip tyrosine kinase microarray
Assay type in all cases: biochemical
Conditions in all cases: 0.1 µM, HL60 lysate
[1] = molecular target: T1, BTK (Q06187) (Homo sapiens, UniProt Q06187)
T1 construct: purchased PamGene (PamChip PTK array, Upstream Kinase Analysis)
Method in brief: (§1)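 HL60 (AML) cell lysate was spiked with compound at 0.001, 0.01, 0.1, 1, 10 and 50 µM, or 2% v/v DMSO as control, then profiled in technical replicates on a tyrosine kinase peptide array of 196 phosphosites. Kinase activity was inferred from peptide-set changes using an upstream kinase tool.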

[2] = molecular target: T2, CCK4/PTK7 (Q13308) (Homo sapiens, UniProt Q13308)
T2 construct: purchased PamGene (PamChip PTK array, Upstream Kinase Analysis)
T2 sequence (Q13308 31-1070): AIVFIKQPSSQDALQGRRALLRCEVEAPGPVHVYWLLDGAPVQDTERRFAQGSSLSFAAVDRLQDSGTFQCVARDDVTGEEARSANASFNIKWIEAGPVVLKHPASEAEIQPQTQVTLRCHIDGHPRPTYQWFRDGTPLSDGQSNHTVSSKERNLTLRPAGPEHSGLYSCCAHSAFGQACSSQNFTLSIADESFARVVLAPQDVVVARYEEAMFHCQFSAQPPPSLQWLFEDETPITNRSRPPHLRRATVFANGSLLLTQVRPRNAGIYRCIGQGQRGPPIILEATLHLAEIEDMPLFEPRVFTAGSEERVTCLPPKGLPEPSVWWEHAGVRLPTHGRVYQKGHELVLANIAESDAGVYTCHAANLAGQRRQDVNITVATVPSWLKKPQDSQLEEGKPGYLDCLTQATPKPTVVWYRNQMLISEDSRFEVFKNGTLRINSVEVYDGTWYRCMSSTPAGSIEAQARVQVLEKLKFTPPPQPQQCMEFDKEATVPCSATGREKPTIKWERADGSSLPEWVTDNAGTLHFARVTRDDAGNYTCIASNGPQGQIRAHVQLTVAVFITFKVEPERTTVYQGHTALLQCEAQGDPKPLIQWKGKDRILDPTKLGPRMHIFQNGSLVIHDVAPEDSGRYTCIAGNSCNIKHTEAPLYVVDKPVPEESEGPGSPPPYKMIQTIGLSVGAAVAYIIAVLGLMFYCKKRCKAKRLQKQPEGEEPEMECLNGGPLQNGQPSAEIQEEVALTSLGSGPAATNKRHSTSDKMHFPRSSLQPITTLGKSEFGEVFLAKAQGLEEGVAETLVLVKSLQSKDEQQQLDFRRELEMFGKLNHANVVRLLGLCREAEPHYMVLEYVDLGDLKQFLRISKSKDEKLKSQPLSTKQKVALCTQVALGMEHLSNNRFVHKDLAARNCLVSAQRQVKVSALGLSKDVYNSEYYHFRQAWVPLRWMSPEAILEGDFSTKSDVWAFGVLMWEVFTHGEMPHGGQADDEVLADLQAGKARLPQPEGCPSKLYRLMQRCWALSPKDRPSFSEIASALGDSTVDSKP
Method in brief: as §1

[3] = molecular target: T3, Fer (P16591) (Homo sapiens, UniProt P16591)
T3 construct: purchased PamGene (PamChip PTK array, Upstream Kinase Analysis)
Method in brief: as §1

[4] = molecular target: T4, Fyn (P06241) (Homo sapiens, UniProt P06241)
T4 construct: purchased PamGene (PamChip PTK array, Upstream Kinase Analysis)
Method in brief: as §1

[5] = molecular target: T5, TXK (P42681) (Homo sapiens, UniProt P42681)
T5 construct: purchased PamGene (PamChip PTK array, Upstream Kinase Analysis)
T5 sequence (P42681 1-527): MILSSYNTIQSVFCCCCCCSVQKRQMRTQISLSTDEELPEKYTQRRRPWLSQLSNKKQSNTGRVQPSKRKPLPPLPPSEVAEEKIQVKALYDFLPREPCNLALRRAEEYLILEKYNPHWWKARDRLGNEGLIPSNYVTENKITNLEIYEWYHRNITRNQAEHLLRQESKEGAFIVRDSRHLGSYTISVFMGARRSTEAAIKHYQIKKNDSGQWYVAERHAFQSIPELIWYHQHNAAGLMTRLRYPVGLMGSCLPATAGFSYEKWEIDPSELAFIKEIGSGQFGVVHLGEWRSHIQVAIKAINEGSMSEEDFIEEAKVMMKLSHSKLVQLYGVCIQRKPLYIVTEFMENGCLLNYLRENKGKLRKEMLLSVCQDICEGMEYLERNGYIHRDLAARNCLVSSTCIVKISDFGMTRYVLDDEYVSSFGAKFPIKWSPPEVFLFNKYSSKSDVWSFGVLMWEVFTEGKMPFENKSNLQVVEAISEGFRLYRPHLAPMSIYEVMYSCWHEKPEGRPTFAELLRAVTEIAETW
Method in brief: as §1

T1 sequence (Q06187 whole entry): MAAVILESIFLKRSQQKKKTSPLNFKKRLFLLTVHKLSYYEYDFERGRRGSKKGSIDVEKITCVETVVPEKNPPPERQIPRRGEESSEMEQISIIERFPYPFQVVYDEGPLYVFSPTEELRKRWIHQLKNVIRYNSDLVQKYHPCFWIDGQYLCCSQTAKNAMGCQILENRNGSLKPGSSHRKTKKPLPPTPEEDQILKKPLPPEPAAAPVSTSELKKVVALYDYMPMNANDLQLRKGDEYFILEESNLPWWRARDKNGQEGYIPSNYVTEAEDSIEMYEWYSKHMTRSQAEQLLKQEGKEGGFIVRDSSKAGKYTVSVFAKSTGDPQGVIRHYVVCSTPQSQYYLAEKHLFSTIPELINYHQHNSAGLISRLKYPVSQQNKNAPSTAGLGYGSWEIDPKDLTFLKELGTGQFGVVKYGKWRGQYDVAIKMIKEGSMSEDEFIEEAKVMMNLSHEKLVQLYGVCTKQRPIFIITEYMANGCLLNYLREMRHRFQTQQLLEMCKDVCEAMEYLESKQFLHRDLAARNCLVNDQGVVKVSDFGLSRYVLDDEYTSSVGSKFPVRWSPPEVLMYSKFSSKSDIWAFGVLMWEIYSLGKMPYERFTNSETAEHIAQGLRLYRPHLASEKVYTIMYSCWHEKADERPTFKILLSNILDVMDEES
T3 sequence (P16591 whole entry): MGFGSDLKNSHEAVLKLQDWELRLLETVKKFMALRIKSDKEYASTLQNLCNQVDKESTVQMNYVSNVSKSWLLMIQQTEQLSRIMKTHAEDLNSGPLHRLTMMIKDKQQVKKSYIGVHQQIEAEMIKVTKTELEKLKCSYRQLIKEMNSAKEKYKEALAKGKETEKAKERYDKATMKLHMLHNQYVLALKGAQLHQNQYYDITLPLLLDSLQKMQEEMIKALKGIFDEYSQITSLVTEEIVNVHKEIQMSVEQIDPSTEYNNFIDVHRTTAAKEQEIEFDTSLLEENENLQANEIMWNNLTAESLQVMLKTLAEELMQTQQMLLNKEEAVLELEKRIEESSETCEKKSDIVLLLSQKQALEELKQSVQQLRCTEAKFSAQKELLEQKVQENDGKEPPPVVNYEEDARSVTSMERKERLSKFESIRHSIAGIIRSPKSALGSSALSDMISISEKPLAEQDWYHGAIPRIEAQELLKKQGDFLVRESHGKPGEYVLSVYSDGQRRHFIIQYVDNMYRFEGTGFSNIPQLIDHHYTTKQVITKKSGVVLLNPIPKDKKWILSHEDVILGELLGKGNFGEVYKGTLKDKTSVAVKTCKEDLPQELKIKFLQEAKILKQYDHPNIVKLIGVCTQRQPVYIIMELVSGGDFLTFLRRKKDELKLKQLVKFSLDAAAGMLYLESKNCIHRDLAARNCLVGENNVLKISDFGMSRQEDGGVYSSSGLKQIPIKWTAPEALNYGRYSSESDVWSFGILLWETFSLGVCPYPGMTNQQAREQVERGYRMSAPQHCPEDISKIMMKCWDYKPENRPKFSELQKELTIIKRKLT
T4 sequence (P06241 whole entry): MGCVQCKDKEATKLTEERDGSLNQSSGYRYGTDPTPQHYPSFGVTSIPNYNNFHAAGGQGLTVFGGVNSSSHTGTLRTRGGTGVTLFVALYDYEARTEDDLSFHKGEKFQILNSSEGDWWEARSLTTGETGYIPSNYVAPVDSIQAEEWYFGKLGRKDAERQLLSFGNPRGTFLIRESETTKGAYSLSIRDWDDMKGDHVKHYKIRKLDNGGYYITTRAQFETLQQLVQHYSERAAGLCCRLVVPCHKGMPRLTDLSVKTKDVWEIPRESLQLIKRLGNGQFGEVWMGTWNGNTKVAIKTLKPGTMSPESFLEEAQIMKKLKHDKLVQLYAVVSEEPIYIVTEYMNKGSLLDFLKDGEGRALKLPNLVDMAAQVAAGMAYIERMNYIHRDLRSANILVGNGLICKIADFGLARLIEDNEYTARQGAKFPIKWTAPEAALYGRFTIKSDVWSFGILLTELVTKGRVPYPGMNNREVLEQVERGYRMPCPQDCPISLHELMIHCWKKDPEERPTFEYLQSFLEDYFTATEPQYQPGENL

COc1ccc(/C=C2\N=C(C)N(c3ccc(CC(=O)NCc4ccccc4)cc3)C2=O)cc1 [Compound 4c, (Z)-N-Benzyl-2-(4-(4-(4-methoxybenzylidene)-2-methyl-5-oxo-4,5-dihydro-1H-imidazol-1-yl)phenyl)acetamide]
Mean Significance Score [1]: 1.957
Mean Specificity Score [1]: 0.668
Mean Final score (Kinase score) ([1]; listed as KIM-161): 2.76 and 2.762
Mean Significance Score [2]: 1.989
Mean Specificity Score [2]: 0.5841
Mean Final score (Kinase score) ([2]; listed as KIM-161): 2.60 and 2.5986
Mean Final score (Kinase score) [3]: 2.491
Mean Kinase Statistic [3]: -1.259
Mean Significance Score [3]: 2.048
Mean Specificity Score [3]: 0.455
Mean Final score (Kinase score) [4]: 2.45
Mean Kinase Statistic [4]: -1.236
Mean Significance Score [4]: 2.048
Mean Specificity Score [4]: 0.4193
Mean Significance Score [5]: 2.048
Mean Specificity Score [5]: 0.6377
Mean Final score (Kinase score) ([5]; listed as KIM-161): 2.68
